This note sets out measurements from the METLIN SMRT retention time set (Domingo-Almenara et al. 2019).

A short description of this data set: gradient 5% acetonitrile 3 min, to 50% in 2 min, to 85% in 15 min, held 3 min, 100 µL/min. The note with it: column: Zorbax Extend-C18 2.1 x 50 mm; eluents: water / acetonitrile, 0.1% formic acid. The procedure, abridged: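 Each retention time is based on an adduct peak selected computationally and verified by manual inspection. Measurements used HPLC–quadrupole time-of-flight mass spectrometry in positive and negative ionization mode on mixtures of ~100 pure standards. Chromatography ran on a Zorbax Extend-C18 column (2.1 × 50 mm, 1.8 μm) at 100 μL/min with water and acetonitrile, each containing 0.1% formic acid, and dead and dwell volumes of 40 μL and 900 μL.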
As for `CC(=O)Nc1ccc(-n2cnc(C(=O)N3CCC(C(N)=O)CC3)c2)nc1`, the RP-LC retention time was found to be 564 s.

The compound `CCOC(=O)COc1cc(-c2ccccc2)nc2ccc(NC(=O)COC)cc12` gave an RP-LC retention time of 695 s.

`CC(NC(=O)Cn1cc(C#N)c2ccccc21)c1ccc2c(c1)OCCCO2` (configuration not stated) had an RP-LC retention time of 881 s.

`OC(COCC(c1ccccc1)c1ccccc1)Cn1cnc2ccccc21` (configuration not stated) returned an RP-LC retention time of 639 s.

The compound `CCOC(=O)c1c(C)[nH]c(C(=O)N2CCCC(C(=O)NCCCN3CCOCC3)C2)c1C` (configuration not stated) registered an RP-LC retention time of 593 s.

As for `O=C(c1cc(C2CC2)[nH]n1)N1CCC(F)(F)C(COCC2CC2)C1` (configuration not stated), the RP-LC retention time worked out at 805 s.

In turn, `O=S(=O)(c1cccc2cccnc12)N1CCc2nc(-c3ccc(F)cc3)ncc2C1` registered an RP-LC retention time of 1000 s.

On to `Cc1cc(NC(=O)COc2cccc3c(=O)n(C)ccc23)no1`, for which the RP-LC retention time came out at 660 s.

In turn, `CCCN1CCN(CCCNC(=O)C(C)n2c(=O)c(C(F)(F)F)nc3ccccc32)CC1` (configuration not stated) registered an RP-LC retention time of 622 s.

Compound `CC(=O)Nc1ccc(-n2cnc(C(=O)N3CCN(c4ccc(F)cc4)CC3)c2)nc1` came in with an RP-LC retention time of 688 s.

`COc1ccc(NC(=O)Cn2c(=O)c3cc(C)nn3c3ncccc32)c(OC)c1`: the RP-LC retention time was found to be 694 s.

In turn, `Cc1cccc(Nc2c(-c3ccccc3)nc3cnccn23)c1C` returned an RP-LC retention time of 981 s.

On to `O=C(CN1C(=O)NC2(CCCCC2)C1=O)Nc1ccccc1`, for which the RP-LC retention time turned out to be 722 s.

`CC(C)CCNC(=O)c1ccc2c(c1)nc(Nc1n[nH]c3ccc(-c4ccccc4OC(F)(F)F)cc13)n2C1CCC(O)CC1` (configuration not stated) displayed an RP-LC retention time of 957 s.

`COCC(=O)N1CC(c2nc(-c3ccc(F)cc3)no2)C2(CCOCC2)C1` (configuration not stated) displayed an RP-LC retention time of 731 s.

Regarding `CCNc1cc(N2CCC(CCC(=O)Nc3ccc(OC)c(OC)c3)CC2)ncn1`, the RP-LC retention time was 614 s.

Compound `COc1cccc(NC(=O)Cn2cnc3c(sc4nc(-c5ccccc5)ccc43)c2=O)c1` had an RP-LC retention time of 982 s.

In turn, `O=S(=O)(Nc1ccc(Cn2cncn2)cc1)c1ccc(F)cc1F` came in with an RP-LC retention time of 714 s.

As for `CCn1c(C2CCN(S(=O)(=O)c3ccc(C(C)C)cc3)C2)nc2cccnc21` (configuration not stated), the RP-LC retention time came to 906 s.

`CC(C)(C)C(=O)NCCN1C(=O)C2(CCCCC2)C1c1ccccc1` (configuration not stated) displayed an RP-LC retention time of 903 s.

The compound `CC(C)N1CCC(c2nnc3n2CCN(S(=O)(=O)c2ccccc2C(F)(F)F)C3)C1` (configuration not stated) had an RP-LC retention time of 631 s.

For `CCc1noc(NC(C)=O)c1-c1ccc(OC)c(S(=O)(=O)N(C)c2ccc(C)cc2)c1`, the RP-LC retention time worked out at 790 s.

`CC1CC(=O)Nc2cc(S(=O)(=O)N3CCN(c4ncccn4)CC3)ccc2S1` (configuration not stated) displayed an RP-LC retention time of 803 s.

On to `O=C(Cn1cccc1-c1nc(-c2ccc3c(c2)OCO3)no1)Nc1ccccc1Cl`, for which the RP-LC retention time was 1100 s.

Compound `CCn1cc(CC(=O)NCc2cc(F)cc(F)c2)c2cccnc21` registered an RP-LC retention time of 739 s.

Turning to `COc1cccc(C(O)CN2CCN(c3ccc(C)cc3)CC2)c1` (configuration not stated), the RP-LC retention time turned out to be 677 s.

As to `CCCc1ccc(S(=O)(=O)N2CCC(c3noc(-c4ccc(C)cc4)n3)CC2)cc1`, the RP-LC retention time was found to be 1370 s.

In turn, `CCc1nc(OCC(=O)Nc2cc(Cl)c(OC)cc2OC)c2ccccc2n1` came in with an RP-LC retention time of 848 s.

As to `Cc1cccc2nnc(N3CCCC(C(=O)NC4CCCC4)C3)n12` (configuration not stated), the RP-LC retention time was found to be 597 s.

`CCN1CCN(c2ccc(NC(=O)C(C)(C)C)c(C(=O)O)c2)CC1` showed an RP-LC retention time of 594 s.

Compound `Cn1cnc(S(=O)(=O)N2CCC(c3noc(-c4ccncc4)n3)C2)c1` (configuration not stated) had an RP-LC retention time of 628 s.

`Cn1cc(C(=O)Nc2cccc(Cl)c2)c2nn(-c3ccccc3)c(=O)c-2c1`: the RP-LC retention time worked out at 1040 s.
